Earlier results, collected in patent publication US5935597A, “Drug delivery devices and methods for treatment of viral and microbial infections and wasting syndromes” (Cryopreservation Technologies CC, priority 1995, dated 1999).

What was measured:
[1] = system: mouse sarcoma allograft; details: in vivo; cited from earlier work
[2] = appetite enhancers, wasting syndromes; cited from earlier work
[3] = system: HIV; details: cited from earlier work
[4] = system: human cancer; details: cited from earlier work
[5] = system: human cancer xenografts; details: intraperitoneal injection, nude mice; cited from earlier work
[6] = system: HIV; details: certain cultured cell lines; cited from earlier work
[7] = system: Human Herpes Virus 6 (HHV-6); details: certain cultured cell lines; cited from earlier work
[8] = system: HIV-1; details: cells infected with HIV-1 isolates, in vitro; cited from earlier work
[9] = system: HIV-2; details: cells infected with HIV-2 isolates, in vitro; cited from earlier work

Question: Which toxicity [1] does the source give for NC=O [formamide] here?
Answer: toxic side-effects

Question: Which weight gain [2] does the source give for CCCCCc1cc(O)c2c(c1)OC(C)(C)[C@@H]1CCC(C)=C[C@@H]21 [dronabinol] here?
Answer: tended to gain only fat and not overall body mass

Question: For Cc1cn([C@H]2C=C[C@@H](CO)O2)c(=O)[nH]c1=O [d4T, stavudine], which anti-HIV activity [3] is on record?
Answer: active against HIV

Question: What does the source list for CNC=O [NMF, N-methylformamide]?
Answer: anticancer activity ([4]; oral, human patients with cancer of the head and neck (Planting et al.)): only minimal activity; hepatotoxicity and response ([4]; oral, human patients with cancer of the head and neck (Vogel et al.)): hepatotoxicity with no beneficial response; growth of human cancer xenografts [5]: slow the growth of certain human cancer xenografts

Question: With C[S+](C)[O-] [DMSO, dimethylsulfoxide] as the molecule, how does the “in vitro replication of HIV” value [6] read?
Answer: inhibit in vitro replication of HIV

Question: And the “in vitro replication of HHV-6” value [7]?
Answer: inhibit in vitro replication of HIV and Human Herpes Virus 6 (HHV-6)

Question: And the objective response ([4]; human cancer patients)?
Answer: no objective response

Question: Which weight gain [2] does the source give for CC(=O)O[C@]1(C(C)=O)CC[C@H]2[C@@H]3C=C(C)C4=CC(=O)CC[C@]4(C)[C@H]3CC[C@@]21C [megestrol acetate] here?
Answer: tended to gain only fat and not overall body mass

B1: MIP-1α: chemokine secreted by CD8+ T cells (protein, UniProt P10147 24-92, looked up)
C-C motif chemokine 3: SLAADTPTACCFSYTSRQIPQNFIADYFETSSQCSKPGVIFLTKRSRQVCADPSEEWVQKYVSDLELSA
Question: Which results are given for B1?
Answer: HIV-1 p24 antigen production [8]: suppress HIV-1 p24 antigen production; HIV-1 p24 antigen production [9]: suppress HIV-1 p24 antigen production

B2: RANTES: chemokine secreted by CD8+ T cells (protein, UniProt P13501 24-91, looked up)
C-C motif chemokine 5: SPYSSDTTPCCFAYIARPLPRAHIKEYFYTSGKCSNPAVVFVTRKNRQVCANPEKKWVREYINSLEMS
Question: With B2 as the molecule, how does the “HIV-1 p24 antigen production” value [8] read?
Answer: suppress HIV-1 p24 antigen production

Question: And the “HIV-1 p24 antigen production” value [9]?
Answer: suppress HIV-1 p24 antigen production

B3: MIP-1β: chemokine secreted by CD8+ T cells (protein, UniProt P13236 24-92, looked up)
C-C motif chemokine 4: APMGSDPPTACCFSYTARKLPRNFVVDYYETSSLCSQPAVVFQTKRSKQVCADPSESWVQEYVYDLELN
modifications: ends and bridges not checked
notes: chemokine secreted by CD8+ T cells
Question: For B3, which “HIV-1 p24 antigen production” value [8] is on record?
Answer: suppress HIV-1 p24 antigen production

Question: What about the “HIV-1 p24 antigen production” value [9] of the same molecule?
Answer: suppress HIV-1 p24 antigen production
